The values that follow come from patent US20250129092A1, “COMPOUNDS USEFUL IN MODULATION OF AHR SIGNALLING” (JAGUAHR THERAPEUTICS PTE LTD, priority 2021, published 2025).

The structures appear in SMILES notation. Values after ≈ are worked out from the molar mass of the structure shown.

Data set [1] is described as follows: ChromLogD. The data set is classed as physicochemical.
Data set [2] is described as follows: Kinetic solubility. Particulars: kinetic from dmso stock. It is filed as physicochemical.
A short description of data set [3]: Hepatocytes Clint (Hu). It is filed as in vitro ADME. Particulars: human.
Data set [4] is described as follows: Hepatocytes Clint (m). It is filed as in vitro ADME. Conditions: mouse.
A short description of data set [5]: Caco-2 permeability / efflux. The data set is classed as in vitro ADME. Conditions: human. A general note: Passage across Caco-2 layers is used to estimate intestinal permeability.
The target in data set [6] is CYP 3A4 (Homo sapiens, UniProt P08684). The data set is described as follows: CYP 3A4. It is filed as in vitro ADME.
Data set [7] addresses T1, CYP 1A2 (Homo sapiens, UniProt P05177).
T1 sequence (P05177 1-516): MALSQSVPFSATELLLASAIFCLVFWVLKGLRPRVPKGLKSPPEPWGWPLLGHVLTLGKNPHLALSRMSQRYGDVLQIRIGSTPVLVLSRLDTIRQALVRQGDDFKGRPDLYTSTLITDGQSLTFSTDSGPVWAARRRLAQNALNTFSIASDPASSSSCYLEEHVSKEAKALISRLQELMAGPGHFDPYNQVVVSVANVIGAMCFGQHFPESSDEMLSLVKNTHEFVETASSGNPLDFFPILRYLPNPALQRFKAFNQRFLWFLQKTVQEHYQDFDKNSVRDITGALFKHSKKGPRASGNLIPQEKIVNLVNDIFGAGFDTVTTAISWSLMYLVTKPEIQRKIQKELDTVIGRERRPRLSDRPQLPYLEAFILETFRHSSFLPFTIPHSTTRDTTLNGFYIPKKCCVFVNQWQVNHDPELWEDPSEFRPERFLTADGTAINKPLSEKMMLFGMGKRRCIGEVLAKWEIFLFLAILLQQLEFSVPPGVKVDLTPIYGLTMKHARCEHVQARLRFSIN
The data set is described as follows: CYP 1A2. It is filed as in vitro ADME.

Data set [8] concerns the target CYP 2C9 (Homo sapiens, UniProt P11712). The data set is described as follows: CYP 2C9. The data set is classed as in vitro ADME.
The target in data set [9] is CYP 2C19 (Homo sapiens, UniProt P33261). Nature of the data set: CYP 2C19. It is filed as in vitro ADME.
In data set [10] the target is CYP 2D6 (Homo sapiens, UniProt P10635). Nature of the data set: CYP 2D6. It is filed as in vitro ADME.
In data set [11] the target is hERG (Homo sapiens, UniProt Q12809). Nature of the data set: hERG. A general note: Block of hERG is tested as a sign of cardiac risk.
Data set [12] addresses T2, AhR (Homo sapiens, UniProt P35869).
T2 sequence (P35869 11-848): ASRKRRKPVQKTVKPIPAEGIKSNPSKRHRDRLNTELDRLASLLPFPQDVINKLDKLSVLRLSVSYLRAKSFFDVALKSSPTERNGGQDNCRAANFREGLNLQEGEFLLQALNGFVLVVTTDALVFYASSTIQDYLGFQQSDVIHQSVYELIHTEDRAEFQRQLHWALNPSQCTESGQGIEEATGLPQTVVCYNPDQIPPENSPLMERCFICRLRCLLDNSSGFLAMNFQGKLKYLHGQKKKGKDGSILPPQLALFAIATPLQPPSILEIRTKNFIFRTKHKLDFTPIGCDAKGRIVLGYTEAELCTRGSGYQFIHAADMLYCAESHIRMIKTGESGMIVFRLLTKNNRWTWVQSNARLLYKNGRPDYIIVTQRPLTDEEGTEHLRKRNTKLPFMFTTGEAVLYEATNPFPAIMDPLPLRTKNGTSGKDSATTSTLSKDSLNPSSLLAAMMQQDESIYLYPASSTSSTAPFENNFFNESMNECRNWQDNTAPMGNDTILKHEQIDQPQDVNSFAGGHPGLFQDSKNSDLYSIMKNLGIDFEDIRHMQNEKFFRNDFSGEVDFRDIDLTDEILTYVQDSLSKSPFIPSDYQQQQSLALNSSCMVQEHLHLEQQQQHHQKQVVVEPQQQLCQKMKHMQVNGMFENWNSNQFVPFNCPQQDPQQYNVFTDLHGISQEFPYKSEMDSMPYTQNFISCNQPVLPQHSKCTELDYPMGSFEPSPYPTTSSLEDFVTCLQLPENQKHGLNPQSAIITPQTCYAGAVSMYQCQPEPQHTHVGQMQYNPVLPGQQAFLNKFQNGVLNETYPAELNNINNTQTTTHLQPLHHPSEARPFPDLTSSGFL
Nature of the data set: AhR antagonism in human PBMCs - inhibition of IL-22 release. The data set is classed as cell-based. Further details: endogenous in cells. Conditions: human PBMCs activated with CD3/CD28 agonist mixture, 72 hrs, IL-22 ELISA; average; read-out: hPBMC Inhibition of CD3/CD28 induced IL-22 release: av. pIC50 (converted). In a few lines: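 Human PBMCs (1×10^6 cells/ml, 100,000 per well) activated with CD3/CD28 agonist (TransAct); seven compound concentrations added 1 h later (0.2% DMSO final). After 72 h at 37 °C, IL-22 in medium measured by ELISA.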

Data set [13] concerns the target T2, AhR. The data set is described as follows: AhR antagonism in U937 cells (Promega P450-Glo assay). Further details: endogenous in cells; host or cells: U937 cells. Particulars: CYP1A1 activity readout (Luciferin-CEE), head names VAF347, average, read-out: U937 Antagonist pIC50-VAF347: av. pIC50 (converted). It is filed as cell-based. Put shortly: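 Human U937 histiocytic lymphoma cells were seeded in Ultraculture serum free media (Lonza) at 100,000 cells per well in round bottom 96 well plates and exposed to seven test compound concentrations for 24 hrs at 37° C., ≥85% humidity, 5% CO2. AhR antagonism was measured as CYP1A1 activity. After removing supernatant, Luciferin-CEE ([Final] 83 μM) was added for 3 hrs. Detection reagent stopped the reaction, and luminescence was read 20 minutes later.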

Chain of CYP 3A4 (P08684 whole entry, species assumed): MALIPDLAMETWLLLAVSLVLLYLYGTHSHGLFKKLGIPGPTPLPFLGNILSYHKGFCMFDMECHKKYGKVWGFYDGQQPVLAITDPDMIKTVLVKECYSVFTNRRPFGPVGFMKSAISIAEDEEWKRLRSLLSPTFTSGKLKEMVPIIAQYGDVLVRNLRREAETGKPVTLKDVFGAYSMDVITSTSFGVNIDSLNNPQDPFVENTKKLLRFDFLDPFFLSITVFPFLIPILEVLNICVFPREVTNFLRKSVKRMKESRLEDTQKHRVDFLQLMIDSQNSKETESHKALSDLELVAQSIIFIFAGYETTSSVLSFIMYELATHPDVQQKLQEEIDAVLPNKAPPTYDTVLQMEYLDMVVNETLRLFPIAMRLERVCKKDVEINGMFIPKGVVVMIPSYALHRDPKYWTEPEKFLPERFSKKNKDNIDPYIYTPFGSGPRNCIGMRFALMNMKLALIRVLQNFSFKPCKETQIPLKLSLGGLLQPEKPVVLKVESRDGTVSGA
Chain of hERG (Q12809 whole entry): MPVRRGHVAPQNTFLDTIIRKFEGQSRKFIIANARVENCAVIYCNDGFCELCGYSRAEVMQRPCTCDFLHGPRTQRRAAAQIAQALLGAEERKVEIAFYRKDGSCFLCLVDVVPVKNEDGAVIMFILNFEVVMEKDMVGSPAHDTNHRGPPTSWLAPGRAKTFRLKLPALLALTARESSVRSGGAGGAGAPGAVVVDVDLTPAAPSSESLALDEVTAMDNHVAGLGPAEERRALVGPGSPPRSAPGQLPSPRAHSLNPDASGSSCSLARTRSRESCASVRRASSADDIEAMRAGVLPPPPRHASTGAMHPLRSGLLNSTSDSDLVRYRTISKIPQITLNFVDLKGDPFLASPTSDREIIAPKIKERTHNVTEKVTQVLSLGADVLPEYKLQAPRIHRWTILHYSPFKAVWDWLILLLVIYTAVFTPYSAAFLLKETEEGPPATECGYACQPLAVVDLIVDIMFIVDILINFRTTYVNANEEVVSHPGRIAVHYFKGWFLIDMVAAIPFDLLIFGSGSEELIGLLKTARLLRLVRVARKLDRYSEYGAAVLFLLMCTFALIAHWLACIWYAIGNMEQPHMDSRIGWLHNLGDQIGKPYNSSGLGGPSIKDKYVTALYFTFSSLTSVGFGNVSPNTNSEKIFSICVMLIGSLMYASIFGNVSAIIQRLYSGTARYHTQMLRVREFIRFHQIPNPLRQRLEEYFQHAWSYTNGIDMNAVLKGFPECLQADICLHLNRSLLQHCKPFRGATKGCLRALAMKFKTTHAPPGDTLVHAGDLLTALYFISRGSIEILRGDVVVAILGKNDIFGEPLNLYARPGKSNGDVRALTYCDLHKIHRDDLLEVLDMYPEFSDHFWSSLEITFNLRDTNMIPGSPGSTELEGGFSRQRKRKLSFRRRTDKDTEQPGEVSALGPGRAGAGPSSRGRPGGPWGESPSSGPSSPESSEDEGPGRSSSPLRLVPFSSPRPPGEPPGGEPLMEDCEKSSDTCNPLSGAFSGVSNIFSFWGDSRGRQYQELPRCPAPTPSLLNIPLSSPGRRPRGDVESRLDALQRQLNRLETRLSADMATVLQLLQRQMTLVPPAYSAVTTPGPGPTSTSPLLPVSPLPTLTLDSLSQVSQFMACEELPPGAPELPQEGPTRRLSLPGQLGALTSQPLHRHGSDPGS
Chain of CYP 2D6 (P10635 whole entry): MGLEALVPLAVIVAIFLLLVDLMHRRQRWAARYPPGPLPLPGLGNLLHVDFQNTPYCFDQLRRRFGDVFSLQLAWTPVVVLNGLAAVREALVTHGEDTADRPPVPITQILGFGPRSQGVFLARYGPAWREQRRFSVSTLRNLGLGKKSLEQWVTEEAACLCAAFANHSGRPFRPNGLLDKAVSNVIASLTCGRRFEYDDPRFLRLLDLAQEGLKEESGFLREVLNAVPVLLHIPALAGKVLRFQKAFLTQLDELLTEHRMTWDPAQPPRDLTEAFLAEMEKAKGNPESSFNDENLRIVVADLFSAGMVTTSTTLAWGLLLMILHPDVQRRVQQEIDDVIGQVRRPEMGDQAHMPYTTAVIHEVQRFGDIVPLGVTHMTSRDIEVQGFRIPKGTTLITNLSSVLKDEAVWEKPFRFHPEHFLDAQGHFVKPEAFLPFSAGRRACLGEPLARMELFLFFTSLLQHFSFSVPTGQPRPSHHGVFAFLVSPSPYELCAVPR
Chain of CYP 2C9 (P11712 whole entry): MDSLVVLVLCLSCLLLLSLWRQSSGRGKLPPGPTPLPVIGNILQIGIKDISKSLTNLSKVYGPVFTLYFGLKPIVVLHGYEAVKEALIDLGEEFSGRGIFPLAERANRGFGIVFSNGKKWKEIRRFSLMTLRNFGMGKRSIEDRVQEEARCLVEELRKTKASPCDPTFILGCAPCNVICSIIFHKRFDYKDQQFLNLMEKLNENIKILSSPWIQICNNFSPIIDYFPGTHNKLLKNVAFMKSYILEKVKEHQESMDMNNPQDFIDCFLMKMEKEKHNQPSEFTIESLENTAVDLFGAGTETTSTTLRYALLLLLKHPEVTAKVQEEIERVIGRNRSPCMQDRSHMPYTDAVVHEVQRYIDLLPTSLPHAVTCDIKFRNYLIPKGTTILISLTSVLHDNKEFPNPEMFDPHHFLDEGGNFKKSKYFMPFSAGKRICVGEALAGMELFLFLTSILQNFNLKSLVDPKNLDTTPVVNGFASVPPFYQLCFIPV
Chain of CYP 2C19 (P33261 whole entry): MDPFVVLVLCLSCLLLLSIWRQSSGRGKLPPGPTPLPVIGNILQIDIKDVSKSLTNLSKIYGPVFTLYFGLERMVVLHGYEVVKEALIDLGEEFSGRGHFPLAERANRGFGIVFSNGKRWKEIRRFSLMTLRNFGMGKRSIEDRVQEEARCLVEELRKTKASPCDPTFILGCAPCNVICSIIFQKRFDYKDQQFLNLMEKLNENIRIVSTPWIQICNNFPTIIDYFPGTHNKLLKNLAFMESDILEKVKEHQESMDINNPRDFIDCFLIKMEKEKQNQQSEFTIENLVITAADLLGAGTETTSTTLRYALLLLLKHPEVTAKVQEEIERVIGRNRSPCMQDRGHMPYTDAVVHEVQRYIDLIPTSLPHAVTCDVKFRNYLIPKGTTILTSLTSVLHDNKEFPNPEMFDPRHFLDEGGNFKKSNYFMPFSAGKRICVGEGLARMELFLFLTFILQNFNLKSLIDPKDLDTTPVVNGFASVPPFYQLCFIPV

Regarding `O=c1[nH]cccc1-c1nc2c(c(OCCc3c[nH]c4ccccc34)n1)OCCN2` [Example 25, 3-(4-(2-(1H-indol-3-yl)ethoxy)-7,8-dihydro-6H-pyrimido[5,4-b][1,4]oxazin-2-yl)pyridin-2(1H)-one], the chromatographic logD (in general, a lipophilicity value derived from retention on a column) in data set [1] worked out at 2.39. For the same molecule, the kinetic solubility – broadly, solubility judged after dilution from a stock solution rather than from solid – in data set [2] was 119 µM (≈ 46.3 µg/mL). Moreover, the results for the hepatocyte CLint in data set [3] and in data set [4] were 7.1 µL/min/1e6 cells and 115 µL/min/1e6 cells, respectively. The efflux ratio (in general, the permeability from basolateral to apical divided by that in the opposite direction, in the common usage) in data set [5] worked out at 4. The apparent permeability from apical to basolateral (Papp A→B) (usually the apparent permeability from the apical to the basolateral side of a cell layer) in data set [5] (A to B) amounted to 7.16 ×10⁻⁶ cm/s. The IC50 is 7200 nM in data set [6]; 45300 nM in data set [7]; 4700 nM in data set [8]; 43400 nM in data set [9]; 50000 nM in data set [10]; 7300 nM in data set [11]. For the same molecule, the IC50 is 1.7 nM in [12] and 2.69 nM in data set [13]. Also, in data set [6] (CYP 3A4 versus U937), the “fold difference (3A4/U937)” value is given as 1986.
As for `COc1ncccc1-c1nc2c(c(NCCc3c[nH]c4ccccc34)n1)OCCN2` [Example 64, N-[2-(1H-indol-3-yl)ethyl]-2-(2-methoxy-3-pyridyl)-7,8-dihydro-6H-pyrimido[5,4-b][1,4]oxazin-4-amine], the figures for the IC50 in [12] and in [13] were 145 nM and 61.7 nM, respectively.
Taken in the same sequence, the figures for `Cc1ncsc1-c1nc2c(c(NCCc3c[nH]c4ccccc34)n1)OCCN2` [Example 10, N-[2-(1H-indol-3-yl)ethyl]-2-(4-methylthiazol-5-yl)-7,8-dihydro-6H-pyrimido[5,4-b][1,4]oxazin-4-amine] were 8.13 nM and 4.57 nM.
As to `C[C@@H]1COc2c(NCCc3c[nH]c4ccccc34)nc(-c3cncc(F)c3)nc2N1` [Example 9, (7R)-2-(5-fluoro-3-pyridyl)-N-[2-(1H-indol-3-yl)ethyl]-7-methyl-7,8-dihydro-6H-pyrimido[5,4-b][1,4]oxazin-4-amine], the results for the IC50 in [12] and in [13] were 0.661 nM and 0.513 nM, respectively.
On the same counts, the results for `O=c1[nH]cc(F)cc1-c1nc2c(c(N[C@@H]3CCc4[nH]c5ccccc5c4C3)n1)OCCN2` [Example 71, (R)-5-fluoro-3-(4-((2,3,4,9-tetrahydro-1H-carbazol-3-yl)amino)-7,8-dihydro-6H-pyrimido[5,4-b][1,4]oxazin-2-yl)pyridin-2(1H)-one] are 69.2 nM and 126 nM.
Regarding `COC[C@H]1COc2c(NCCc3c[nH]c4ccccc34)nc(-c3cncc(F)c3)nc2N1` [Example 28, (7S)-2-(5-fluoro-3-pyridyl)-N-[2-(1H-indol-3-yl)ethyl]-7-(methoxymethyl)-7,8-dihydro-6H-pyrimido[5,4-b][1,4]oxazin-4-amine], the IC50 in data set [12] was 0.617 nM; in data set [13], 0.513 nM.
With `Fc1cncc(-c2nc3c(c(NCCc4c[nH]c5ccccc45)n2)OCCN3)c1` [Example 1, 2-(5-fluoro-3-pyridyl)-N-[2-(1H-indol-3-yl)ethyl]-7,8-dihydro-6H-pyrimido[5,4-b][1,4]oxazin-4-amine], the IC50 in data set [12] is 1.91 nM; in data set [13] it was 0.724 nM.
As for `O=c1[nH]cc(F)cc1-c1nc2c(c(NCCc3c[nH]c4cc(F)ccc34)n1)OCCN2` [Example 70, 5-fluoro-3-(4-((2-(6-fluoro-1H-indol-3-yl)ethyl)amino)-7,8-dihydro-6H-pyrimido[5,4-b][1,4]oxazin-2-yl)pyridin-2 (1H)-one], the IC50 in data set [12] is 0.646 nM; in data set [13], 1.58 nM.
On the same counts, the results for `Cc1ncc(-c2nc3c(c(N[C@H]4Cc5cccc6[nH]cc(c56)C4)n2)OCCN3)s1` (single isomer, unassigned) [Example 62] are 132 nM and 50.1 nM.
Taken in the same sequence, the figures for `COC[C@@H]1COc2c(NCCc3c[nH]c4ccccc34)nc(-c3cncc(F)c3)nc2N1` [Example 46, (7R)-2-(5-fluoro-3-pyridyl)-N-[2-(1H-indol-3-yl)ethyl]-7-(methoxymethyl)-7,8-dihydro-6H-pyrimido[5,4-b][1,4]oxazin-4-amine] were < 1.35 nM and 0.759 nM.
